The record followed here is patent publication US6656690B2, “Mass spectrometric methods for biomolecular screening” (priority 1998, dated 2003).

In the assay the test system is 27-mer RNA/DNA chimeric corresponding to the 16S rRNA A site. Put plainly: ESI-MS and CID/CAD MS-MS protection assay on chimeric 27-mer RNA/DNA (ion trap). The assay is classed as binding, prokaryotic. As for the experimental part:
In order to study the structure of the 27-mer RNA corresponding to the 16S rRNA A site, of sequence 5′-GGC-GUC-ACA-CCU-UCG-GGU-GAA-GUC-GCC-3′ (SEQ ID NO:1) a chimeric RNA/DNA molecule that incorporates three deoxyadenosine (dA) residues at positions 7, 20 and 21 was prepared using standard nucleic acid synthesis protocols on an automated synthesizer. This chimeric nucleic acid of sequence 5′-GGC-GUC-dACA-CCU-UCG-GGU-GdAdA-GUC-GCC-3′ (SEQ ID NO:2) was injected as a solution in water into an electrospray mass spectrometer. […] These fragments correspond to the w7^(2−), w8^(2−) and the a7-B^(2−) fragments respectively, that are formed by cleavage of the chimeric nucleic acid adjacent to each of the incorporated dA residues. […]
Next, another sample of the chimeric nucleic acid was treated with a solution of paromomycin and the resulting mixture analyzed by ESI followed by CID using a mass spectrometer. […]
1 mL (0.6 O.D.) of a solution of a 27-mer RNA containing 3 dA residues (from Example 1) was diluted into 500 μL of 1:1 isopropanol:water and adjusted to provide a solution that was 150 mM in ammonium acetate, pH 7.4 and wherein the RNA concentration was […]. […] This mixture was then subjected to ESI-MS and the ionization of the nucleic acid and its complex monitored in the mass spectrum. […]

Entries after “also recorded” stand apart in the source; their conditions may differ.

Take `NC[C@@H]1O[C@H](O[C@H]2[C@@H](O)[C@H](O[C@@H]3[C@@H](O)[C@H](N)C[C@H](N)[C@H]3O[C@H]3O[C@H](CO)[C@@H](O)[C@H](O)[C@H]3N)O[C@@H]2CO)[C@H](N)[C@@H](O)[C@@H]1O` [paromomycin]: the “fragmentation at dA sites of the complex under CID/CAD (protection of binding site)” value (same activation energy as free RNA) is on record as “no fragmentation at the dA sites; also recorded: No cleavage was found to occur; also recorded: No significant fragment ions; also recorded: No fragment ions are detected”. Further, the “complex formation / binding strength with chimeric 27-mer (in words)” value (target 10 mM as printed, paromomycin and library members ~150 nM) is “only a 1:1 complex”.
